Literature values, collected in patent publication US6440947B1, “Method for treating occlusive peripheral vascular disease and coronary disease” (The Regents of the University of California, priority 1997, dated 2002).

What was measured:
[1] = system: human umbilical vein endothelial cell cultures; conditions: physiological concentrations

- half-life in vivo: less than 30 seconds
Compound: Nc1ncnc2c1ncn2[C@@H]1O[C@H](CO)[C@@H](O)[C@H]1O [Adenosine, adenosine]
- effect on endothelial cell proliferation [1]: stimulates proliferation
